According to patent EP0565593B1, “REDUCING PESTICIDAL INTERACTIONS IN CROPS” (priority 1990, dated 1992):
Read-outs that look alike come from different tables or passages of the source.

Columns and labels:
Giant foxtail (GIFT) [1] = assay: Greenhouse test Procedure VII (same examples); assay type: in vivo; details: Antidote + Biocide No. 1 in furrow
Source text: This procedure describes interaction among herbicide, biocide and antidote when the biocide and the antidote is applied to a soil furrow containing crop seed before emergence of the crop and the herbicide is applied after emergence of the crop and weeds. The soil and planting depth was described in Procedure IV. The containers for comparison, the biocide and antidote applications to soil furrows were described in Procedure VI. In this procedure, the seed beds of the first, second, third and fourth containers are covered by soil layers not treated with herbicide. The containers were then placed on a bench in a greenhouse and subirrigated as required for the duration of the test. The herbicide, dispersed or dissolved in water containing 0.25% v/v nonionic surfactant (X-77) was applied by a track sprayer (187 L/ha) to the emerged plants of the second, third and fourth containers about five days after planting. All treatments were run in duplicate. Plant response was observed according to Procedure IV. Variations in this procedure will be noted in the examples.
In these tests (according to Procedure VII) the safeners in solution with acetone were applied in furrow to the soil, followed by COUNTER 15G granules at 227 g/305 m (8 oz./1000'). Applications were made in alternate rows in two separate 13.7 cm x 27.7 cm pans containing Dupo silt loam. Pans were seeded 1.3 cm deep, placed on benches in a greenhouse and subirrigated. BEACON was formulated in water with 0.25% v/v X-77 surfactant and applied by track sprayer at a rate of 187 L/Ha (20 gal/A). Weed species in this test were giant foxtail, shattercane and velvetleaf. The herbicide was applied five (5) days after PPI initiation and observation of test result (shown in Table 47) made eight (8) days later.
In Table 47 COUNTER 15G is abbreviated as "C" and the antidotes as "A" in the column headings which indicate the "C + A" ratios used in the tests. Control and COUNTER treatments are average of four (4) replications and COUNTER + Antidote treatments, average of 2 reps.

Velvetleaf (VELE) = assay type: in vivo, Abutilon theophrasti
Corn = assay: Multi-crop greenhouse test, soil-applied (Examples 65, 66; Tables 64, 65); assay type: in vivo; design: inhibition: dose or concentration left out as unconfirmed; details: Zea mays; for inhibition at 18 g/ha: Herb. No. 1 0.018 Kg/Ha alone; for inhibition at 70 g/ha: Herb. No. 1 0.07 Kg/Ha alone; for inhibition at 280 g/ha: Herb. No. 1 0.28 Kg/Ha alone
In short: (§1)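 Dupo silt loam pans, seeds 1.3 cm deep; safener (acetone) + COUNTER 15G granules mixed into cover soil; subirrigated. MON-12000 run: herbicide POE day 6, light overhead irrigation days 4–7, injury scored 10 d later. XRD-498 run: all three components applied together to covers. Mean of 2 reps.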

Giant foxtail (GIFT) [2] = assay: as above; assay type: in vivo; design: inhibition: dose or concentration left out as unconfirmed; details: Setaria faberi; for inhibition at 18 g/ha: Herb. No. 1 0.018 Kg/Ha alone; for inhibition at 70 g/ha: Herb. No. 1 0.07 Kg/Ha alone; for inhibition at 280 g/ha: Herb. No. 1 0.28 Kg/Ha alone
In short: as §1

wheat (WHEA) = assay: as above; assay type: in vivo; design: inhibition: dose or concentration left out as unconfirmed; details: Triticum aestivum; for inhibition at 18 g/ha: Herb. No. 1 0.018 Kg/Ha alone; for inhibition at 70 g/ha: Herb. No. 1 0.07 Kg/Ha alone; for inhibition at 280 g/ha: Herb. No. 1 0.28 Kg/Ha alone
In short: as §1

soybean (SOBE) = assay: as above; assay type: in vivo; design: inhibition: dose or concentration left out as unconfirmed; details: Glycine max; for inhibition at 18 g/ha: Herb. No. 1 0.018 Kg/Ha alone; for inhibition at 70 g/ha: Herb. No. 1 0.07 Kg/Ha alone; for inhibition at 280 g/ha: Herb. No. 1 0.28 Kg/Ha alone
In short: as §1

[3] = Table 64, Herb. No. 1 0.018 Kg/Ha + Biocide No. 1 8.96 Kg/Ha
[4] = Table 64, Herb. No. 1 0.07 Kg/Ha + Biocide No. 1 8.96 Kg/Ha
[5] = Table 64, Herb. No. 1 0.28 Kg/Ha + Biocide No. 1 8.96 Kg/Ha
[6] = Table 65, Herb. No. 1 0.018 Kg/Ha + Biocide No. 1 8.96 Kg/Ha
[7] = Table 65, Herb. No. 1 0.07 Kg/Ha + Biocide No. 1 8.96 Kg/Ha
[8] = Table 65, Herb. No. 1 0.28 Kg/Ha + Biocide No. 1 8.96 Kg/Ha

N#CCOc1ccc(Cl)c2cccnc12 [compound 33]
% Inhibition GIFT (Giant foxtail (GIFT) [1]; Herbicide No. 1 0.14 Kg/Ha POE, 8 days after POE): 0%
% Inhibition GIFT (Giant foxtail (GIFT) [1]; Herbicide No. 4 0.17 Kg/Ha POE, 8 days after POE): 0%
% Inhibition GIFT (Giant foxtail (GIFT) [1]; Herbicide No. 5 0.07 Kg/Ha POE, 8 days after POE): 0%
% Inhibition GIFT (Giant foxtail (GIFT) [1]; Herbicide No. 6 0.01 Kg/Ha POE): 65%
% Inhibition GIFT (Giant foxtail (GIFT) [1]; Herbicide No. 7 0.56 Kg/Ha POE, 8 days after POE): 80%
% Inhibition GIFT (Giant foxtail (GIFT) [1]; Herbicide No. 9 0.009 Kg/Ha POE): 25%
% Inhibition GIFT (Giant foxtail (GIFT) [1]; Herbicide No. 10 0.002 Kg/Ha POE, 8 days after POE): 0%
% Inhibition GIFT (Giant foxtail (GIFT) [1]; Herbicide No. 15 0.0044 Kg/Ha POE, 8 days after POE): 0%
% Inhibition GIFT (Giant foxtail (GIFT) [1]; Herbicide No. 16 0.01 Kg/Ha POE): 30%
% Inhibition GIFT (Giant foxtail (GIFT) [1]; Herbicide No. 18 0.0044 Kg/Ha POE): 65%
% Inhibition GIFT (Giant foxtail (GIFT) [1]; Herbicide No. 19 0.28 Kg/Ha POE): 35%
% Inhibition GIFT (Giant foxtail (GIFT) [1]; Herbicide No. 21 0.14 Kg/Ha POE): 30%
% Inhibition GIFT (Giant foxtail (GIFT) [1]; Herbicide No. 23 0.0006 Kg/Ha POE): 25%
% Inhibition 5 DAP VELE (Velvetleaf (VELE); Antidote 4.48 + Biocide No. 1 8.96 Kg/Ha PPI, Herb. No. 8 0.07, 5 DAP, before herbicide application): 50%
% Inhibition 13 DAP VELE (Velvetleaf (VELE); Antidote 4.48 + Biocide No. 1 8.96 Kg/Ha PPI, Herb. No. 8 0.07 POE, 13 DAP): 95%
% Inhibition VELE (Velvetleaf (VELE); Antidote 4.48 + Biocide No. 1 8.96 Kg/Ha PPI, Herbicide No. 7 0.28 POE, 13 days after planting): 70%
% Inhibition 5 DAP VELE (Velvetleaf (VELE); Herb. […], 5 DAP, before herbicide application): 30%
% Inhibition VELE (Velvetleaf (VELE); Table 14: Herbicide No. 7 (ACCENT) 0.84 Kg/Ha POE + Biocide No. 2 8.96 Kg/Ha PPI + antidote 4.48 Kg/Ha PPI, 13 days after planting, 8 days after herbicide): 75%
% Inhibition VELE (Velvetleaf (VELE); […], 13 days after planting, 8 days after herbicide): 70%
% Inhibition VELE (Velvetleaf (VELE); […], observed 10 days after herbicide application): 85%
% Inhibition 5 DAP VELE (Velvetleaf (VELE); in vivo): 60%
% Inhibition 13 DAP VELE (Velvetleaf (VELE); in vivo): 90%

COC(=O)c1c(Cl)nn(C)c1S(=O)(=O)NC(=O)Nc1nc(OC)cc(OC)n1 [Herbicide No. 1, N-[(4,6-dimethoxypyrimidin-2-yl)aminocarbonyl]-3-chloro-4-methoxycarbonyl-5-sulfonamide, reference compound]
inhibition (Corn; [3]): 0%
inhibition at 18 g/ha (Corn; Table 64): 0%
inhibition (Corn; [4]): 10%
inhibition at 70 g/ha (Corn; Table 64): 0%
inhibition (Corn; [5]): 60%
inhibition at 280 g/ha (Corn; Table 64): 10%
inhibition (Corn; [6]): 0%
inhibition at 18 g/ha (Corn; Table 65): 0%
inhibition (Corn; [7]): 0%
inhibition at 70 g/ha (Corn; Table 65): 0%
inhibition (Corn; [8]): 75%
inhibition at 280 g/ha (Corn; Table 65): 10%
inhibition (Giant foxtail (GIFT) [2]; [3]): 70%
inhibition at 18 g/ha (Giant foxtail (GIFT) [2]; Table 64): 0%
inhibition (Giant foxtail (GIFT) [2]; [4]): 70%
inhibition at 70 g/ha (Giant foxtail (GIFT) [2]; Table 64): 20%
inhibition (Giant foxtail (GIFT) [2]; [5]): 85%
inhibition at 280 g/ha (Giant foxtail (GIFT) [2]; Table 64): 40%
inhibition (Giant foxtail (GIFT) [2]; [6]): 30%
inhibition at 18 g/ha (Giant foxtail (GIFT) [2]; Table 65): 20%
inhibition (Giant foxtail (GIFT) [2]; [7]): 65%
inhibition at 70 g/ha (Giant foxtail (GIFT) [2]; Table 65): 60%
inhibition (Giant foxtail (GIFT) [2]; [8]): 90%
inhibition at 280 g/ha (Giant foxtail (GIFT) [2]; Table 65): 70%
inhibition (wheat (WHEA); [3]): 0%
inhibition at 18 g/ha (wheat (WHEA); Table 64): 0%
inhibition (wheat (WHEA); [4]): 0%
inhibition at 70 g/ha (wheat (WHEA); Table 64): 0%
inhibition (wheat (WHEA); [5]): 35%
inhibition at 280 g/ha (wheat (WHEA); Table 64): 0%
inhibition (wheat (WHEA); [6]): 0%
inhibition at 18 g/ha (wheat (WHEA); Table 65): 0%
inhibition (wheat (WHEA); [7]): 0%
inhibition at 70 g/ha (wheat (WHEA); Table 65): 0%
inhibition (wheat (WHEA); [8]): 85%
inhibition at 280 g/ha (wheat (WHEA); Table 65): 0%
inhibition (soybean (SOBE); [3]): 5%
inhibition at 18 g/ha (soybean (SOBE); Table 64): 15%
inhibition (soybean (SOBE); [4]): 70%
inhibition at 70 g/ha (soybean (SOBE); Table 64): 45%
inhibition (soybean (SOBE); [5]): 75%
inhibition at 280 g/ha (soybean (SOBE); Table 64): 70%
inhibition (soybean (SOBE); [6]): 0%
inhibition at 18 g/ha (soybean (SOBE); Table 65): 0%
inhibition (soybean (SOBE); [7]): 0%
inhibition at 70 g/ha (soybean (SOBE); Table 65): 0%
inhibition (soybean (SOBE); [8]): 15%
inhibition at 280 g/ha (soybean (SOBE); Table 65): 20%
